Test results taken from the supplement of paper PMC10307832.

Legend:
Assay in all cases: relative viability (nuclei count vs DMSO), 5 days (fraction); higher = more cells survive
[1] = compound: C=CCc1cccc(/C=N/NC(=O)CN2CCN(Cc3ccccc3)CC2)c1O [PAC-1] + Cc1nc(Nc2ncc(C(=O)Nc3c(C)cccc3Cl)s2)cc(N2CCN(CCO)CC2)n1 [Dasatinib] (partner 0.075 µM)
Procedure, shortened: (§1)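 Relative viability equals treated-well nuclei counts divided by vehicle-well nuclei counts. Counts came from 4× images of lung cancer cell lines grown in 1536-well plates for 5 days after pin-tool dosing on the day after seeding. Dosing used one drug alone or a fixed anchor-drug dose plus five library-drug doses (not always all listed) in √10 steps, and values are medians of duplicate plates.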

[2] = compound: C=CCc1cccc(/C=N/NC(=O)CN2CCN(Cc3ccccc3)CC2)c1O [PAC-1] + COc1cc2c(Oc3ccc(NC(=O)C4(C(=O)Nc5ccc(F)cc5)CC4)cc3F)ccnc2cc1OCCCN1CCOCC1 [Foretinib] (partner 0.25 µM)
Procedure, shortened: as §1

[3] = compound: C=CC(=O)Nc1cc(-n2c(=O)ccc3cnc4ccc(-c5ccc(NS(C)(=O)=O)cc5)cc4c32)ccc1C [BMX-IN-1] + NC(=O)Nc1cc(-c2cccc(F)c2)sc1C(=O)N[C@H]1CCCNC1 [AZD7762] (partner 0.2 µM)
Procedure, shortened: as §1

[4] = compound: C=CC(=O)N1CCC[C@@H](n2nc(-c3ccc(Oc4ccccc4)cc3)c3c(N)ncnc32)C1 [Ibrutinib] + Nc1nc2[nH]cc(CCc3ccc(C(=O)N[C@@H](CCC(=O)O)C(=O)O)cc3)c2c(=O)[nH]1 [Pemetrexed] (partner 0.2 µM)
Procedure, shortened: as §1

Cell Line | relative viability ([1]; first compound 0.02 µM) | relative viability ([1]; first compound 0.06325 µM) | relative viability ([1]; first compound 0.2 µM) | relative viability ([1]; first compound 2 µM) | relative viability ([2]; first compound 0.02 µM) | relative viability ([2]; first compound 0.06325 µM) | relative viability ([2]; first compound 0.2 µM) | relative viability ([2]; first compound 2 µM) | relative viability ([3]; first compound 0.02 µM) | relative viability ([3]; first compound 0.2 µM) | relative viability ([3]; first compound 0.6325 µM) | relative viability ([3]; first compound 2 µM) | relative viability ([4]; first compound 0.005 µM) | relative viability ([4]; first compound 0.01581 µM) | relative viability ([4]; first compound 0.05 µM) | relative viability ([4]; first compound 0.1581 µM) | relative viability ([4]; first compound 0.5 µM)
LC-2-ad | 0.552 | 0.629 | 0.603 | 0.489 | 0.968 | 0.875 | 0.887 | 0.954 | 0.982 | 1.09 | 0.924 | 0.867 | 0.279 | 0.272 | 0.274 | 0.258 | 0.293
NCI-H596 | 0.571 | 0.659 | 0.573 | 0.664 | 0.767 | 0.832 | 0.876 | 0.894 | 1.07 | 1.36 | 1.23 | 1.04 | 0.499 | 0.487 | 0.482 | 0.409 | 0.543
A-427 | 0.77 | 0.665 | 0.666 | 0.697 | 1.12 | 0.946 | 1.09 | 1.08 | 0.796 | 1.14 | 0.84 | 0.806 | 0.986 | 0.995 | 0.961 |  | 1.02
HCC-827 | 0.277 | 0.325 | 0.297 | 0.293 | 1.11 | 1.03 | 0.964 | 1.03 | 0.217 | 0.207 | 0.251 | 0.194 | 0.22 | 0.248 | 0.24 | 0.246 | 0.168
NCI-H1915 | 0.313 | 0.336 | 0.317 | 0.29 | 1.09 | 1.08 | 1.02 | 1.08 | 0.774 | 0.786 | 0.806 | 0.675 | 0.532 | 0.599 | 0.587 | 0.513 | 0.715
NCI-H322M | 0.226 | 0.264 | 0.259 | 0.256 | 0.859 | 0.948 | 0.986 | 0.887 | 0.532 | 0.559 | 0.714 | 0.485 | 0.659 | 0.572 | 0.605 | 0.537 | 0.536
EKVX | 0.587 | 0.606 | 0.569 | 0.515 | 0.886 | 0.792 | 0.69 | 0.427 | 1.02 | 0.81 | 0.843 | 0.723 | 0.33 | 0.419 | 0.359 | 0.336 | 0.222
EMC-BAC-2 | 0.388 | 0.303 | 0.346 | 0.326 | 0.999 | 1.04 | 0.936 | 0.996 | 1.32 | 1.31 | 1.1 | 1.14 | 0.527 | 0.449 | 0.541 |  | 0.714
HCC-15 | 0.631 | 0.675 | 0.606 | 0.619 | 0.993 | 1.08 | 0.985 | 1.04 | 0.591 | 1.24 | 1.35 | 1.29 | 0.238 | 0.223 | 0.238 | 0.235 | 0.322
LXF-289 | 0.228 | 0.226 | 0.192 | 0.223 | 0.907 | 1.02 | 1 | 0.934 | 1.25 | 1.18 | 1.22 | 1.27 | 0.936 | 0.927 | 0.915 | 0.81 | 1.01
NCI-H358 | 0.179 | 0.164 | 0.158 | 0.135 | 0.622 | 0.573 | 0.645 | 0.574 | 0.448 | 0.504 | 0.491 | 0.486 | 0.165 | 0.18 |  | 0.171 | 0.16
NCI-H1395 | 0.403 | 0.476 | 0.387 | 0.422 | 0.937 | 1.02 | 0.875 | 0.873 | 0.4 | 0.407 | 0.434 | 0.376 | 0.752 | 0.934 | 0.804 | 0.797 | 1.07
NCI-H838 | 0.247 | 0.278 | 0.243 | 0.311 | 1.06 | 0.953 | 1.01 | 1.06 | 1.06 | 1.01 | 0.956 | 1.01 | 0.255 | 0.236 | 0.246 | 0.265 | 0.292
201T | 0.571 | 0.595 | 0.589 | 0.58 | 0.998 | 1.22 | 1.15 | 1.11 | 0.728 | 0.63 | 0.662 | 0.56 | 0.296 | 0.301 | 0.363 | 0.363 | 0.507
NCI-H1437 | 0.298 | 0.425 | 0.459 | 0.278 | 1.19 | 1.23 | 1.3 | 1.1 | 1.26 | 1.26 | 1.11 | 1.11 | 0.366 | 0.33 | 0.361 | 0.296 | 0.408
NCI-H1975 | 0.358 | 0.363 | 0.336 | 0.347 | 0.933 | 0.947 | 1.01 | 0.932 | 0.797 | 0.742 | 0.895 | 0.673 | 0.292 | 0.28 | 0.315 | 0.277 | 0.309
RERF-LC-KJ | 0.826 | 0.812 | 0.775 | 0.786 | 0.961 | 0.854 | 0.845 | 0.904 | 1.1 | 0.957 | 1.3 | 1.19 | 0.462 | 0.455 | 0.512 | 0.433 | 0.569
